Measurements from PMC10999543, “Identification of kinase modulators as host-directed therapeutics against intracellular methicillin-resistant Staphylococcus aureus” (Frontiers in Cellular and Infection Microbiology, 2024).
Read-outs that look alike come from different tables or passages of the source.

Assays:
[1] = system: HER4; set-up: method as in Elkins et al., 2016; conditions: PKIS1, Caliper assay, ref Elkins et al., 2016; cited from earlier work
[2] = system: HeLa cells; test: Compound screen by flow cytometry: HeLa cell count as surrogate readout of cell viability (z-scoreHeLa); type: cell-based, human
Summary of the method: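 The viability surrogate was the count of fixed HeLa cells by flow cytometry, converted to z-scores against DMSO controls with values deviating two-fold excluded. Before counting, cells had been infected with MRSA for 1 h and cleared of extracellular bacteria with gentamicin. They were then exposed overnight to kinase inhibitors in triplicate.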

[3] = system: intracellular MRSA; type: cell-based, Staphylococcus aureus; conditions: for z-scoreMRSA+ mean: mean of 3 replicates; for z-scoreMRSA+ rep 1 / %GFP+ rep 1: replicate 1; for z-scoreMRSA+ rep 2 / %GFP+ rep 2: replicate 2; for z-scoreMRSA+ rep 3 / %GFP+ rep 3: replicate 3
Summary of the method: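 HeLa cells were infected with GFP-expressing MRSA (mean MOI 6.8) for 1 h, treated with 30 µg/ml gentamicin for 15 min, then incubated overnight at 37°C with kinase inhibitors and 5 µg/ml gentamicin. Flow cytometry gave % GFP-positive cells, with cell count as viability. Hits were z-score ≤ -2 (infection) and ≥ -3 (count) versus DMSO.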

[4] = system: HER2; set-up: method as in Elkins et al., 2016; conditions: PKIS1, Caliper assay, ref Elkins et al., 2016; cited from earlier work
[5] = system: intracellular MRSA in HeLa cells; test: Gentamicin protection assay with CFU count in MRSA-infected HeLa cells; type: cell-based, Staphylococcus aureus; conditions: tested at different concentrations, Figure 4K
Experimental: The cells were resuspended in cell culture medium without antibiotics, seeded with 10,000 cells/well into Costar flat-bottom 96-well plates (Corning, Amsterdam, the Netherlands), and were incubated overnight at 37°C/5% CO2. The next day, the bacteria were centrifuged at ≥1800 g for 15 min and resuspended in cold PBS + 5 mM ethylenediaminetetraacetic acid (EDTA). The number of CFUs present in the bacterial suspension was estimated from the optical density at 600 nm (OD600) by assuming 8x10^8 CFUs to be present in a bacterial suspension with OD600 = 1, based on prior titrations. The bacterial suspension was diluted in cell culture medium without antibiotics and added to the cells. Accuracy of the multiplicity of infection (MOI) was validated by plating serial dilutions of the MRSA inoculums on Difco TS agar plates (BD Biosciences). The calculated mean MOI throughout all experiments was 6.8 ± 4.6 (mean ± SD). Infected cells were centrifuged for 3 min at 150 g and incubated for 1 hour at 37°C/5% CO2. Next, the cells were incubated with fresh cell culture medium supplemented with 30 µg/ml gentamicin sulphate (Lonza BioWhittaker, Basel, Switzerland) for 15 min at 37°C/5% CO2 to kill residual extracellular bacteria. Infected cells were incubated overnight at 37°C/5% CO2 in cell culture medium in the presence of kinase inhibitors and 5 µg/ml gentamicin sulphate-containing medium to prevent the growth of extracellular bacteria. The solvent of the compounds, DMSO, was used at equal % v/v as a negative control. For the screen, each compound was tested in triplicate, on separate cell culture plates, resulting in triplicate values for each kinase inhibitor.
Infected cells were lysed in sterile water + 0.05% UltraPure SDS solution (Invitrogen, ThermoFisher Scientific) to release intracellular bacteria. Bacterial suspensions and lysates of cells infected with MRSA were 5-fold serially diluted and 10-μl drops were plated on square TS agar plates. The plates were left to dry and incubated overnight at 37°C/5% CO2.

[6] = PKIS compound screen, Yes/No call
[7] = PKIS compound screen, mean of 3 replicates
[8] = PKIS compound screen, replicate 1
[9] = PKIS compound screen, replicate 2
[10] = PKIS compound screen, replicate 3
[11] = PKIS compounds raw data, replicate 1, HeLa cell count
[12] = PKIS compounds raw data, replicate 2, HeLa cell count
[13] = PKIS compounds raw data, replicate 3, HeLa cell count
[14] = PKIS compound screen, Yes/No call (effect without cell death)
[15] = PKIS compounds raw data, MRSA-infected HeLa cells
[16] = PKIS compound screen raw data, HeLa cell count, replicate 1
[17] = PKIS compound screen raw data, HeLa cell count, replicate 2
[18] = PKIS compound screen raw data, HeLa cell count, replicate 3
[19] = PKIS compound screen raw data, MRSA-infected HeLa cells
[20] = PKIS compound screen, MRSA-infected HeLa cells
[21] = PKIS compound screen, Yes/No call on z-scoreMRSA+
[22] = compound screen, HeLa cell count, mean of 3 replicates
[23] = compound screen, HeLa cell count, replicate 1
[24] = compound screen, HeLa cell count, replicate 2
[25] = compound screen, HeLa cell count, replicate 3
[26] = Yes/No: effect without cell death
[27] = compound screen, MRSA-infected HeLa cells

Molecule	cell count rep 1 [2, 11]	cell count rep 2 [2, 12]	cell count rep 3 [2, 13]	effect [3, 6]	hit [3, 14]	z-scoreMRSA+ mean ([3]; PKIS compound screen)	z-scoreMRSA+ rep 1 ([3]; PKIS compound screen)	z-scoreMRSA+ rep 2 ([3]; PKIS compound screen)	z-scoreMRSA+ rep 3 ([3]; PKIS compound screen)	%GFP+ rep 1 [3, 15] [%]	%GFP+ rep 2 [3, 15] [%]	%GFP+ rep 3 [3, 15] [%]	%GFP+ rep 1 [3, 19] [%]	%GFP+ rep 2 [3, 19] [%]	%GFP+ rep 3 [3, 19] [%]	cell death ([2]; Yes/No call from z-scoreHeLa)	z-scoreHeLa mean [2, 22]	z-scoreHeLa rep 1 [2, 23]	z-scoreHeLa rep 2 [2, 24]	z-scoreHeLa rep 3 [2, 25]	further results
[O-][S+]1CCN(Cc2ccc(-c3ccc4ncnc(Nc5ccc(OCc6ccccc6)c(Cl)c5)c4c3)o2)CC1 [GW583373A]	8794	7971	7863	No	No	-1.31	-1.43	-1.26	-1.26	19.7	19.5	20.5									% inhibition at 1 µM HER4 [1]: 84%; cell death [2, 6]: No; z-scoreHeLa mean [2, 7]: 1.46; z-scoreHeLa rep 1 [2, 8]: 1.65; z-scoreHeLa rep 2 [2, 9]: 1.30; z-scoreHeLa rep 3 [2, 10]: 1.44; % inhibition at 1 µM HER2 [4]: 73%
O=C(Nc1n[nH]c2nc(-c3ccccc3)c(Br)cc12)C1CC1 [SB-708998]	5956	6708	6327	No	No	0.31	0.75	-0.18	0.38	30.9	25.1	29.3	14.4	13.9	15.7						cell count rep 1 [2, 16]: 29154; cell count rep 2 [2, 17]: 28936; cell count rep 3 [2, 18]: 20350; z-scoreHeLa mean ([2]; PKIS compound screen, HeLa cell count, mean of 3 replicates): 0.24; z-scoreHeLa rep 1 ([2]; PKIS compound screen, HeLa cell count, replicate 1): -0.18; z-scoreHeLa rep 2 ([2]; PKIS compound screen, HeLa cell count, replicate 2): 0.63; z-scoreHeLa rep 3 ([2]; PKIS compound screen, HeLa cell count, replicate 3): 0.28; cell death [2, 6]: No; cell death ([2]; PKIS compound screen, Yes/No call on z-scoreHeLa): No; z-scoreHeLa mean [2, 7]: 0.29; z-scoreHeLa rep 1 [2, 8]: -0.0543; z-scoreHeLa rep 2 [2, 9]: 0.46; z-scoreHeLa rep 3 [2, 10]: 0.46; z-scoreMRSA+ mean [3, 20]: -1.40; z-scoreMRSA+ rep 1 [3, 20]: -1.17; z-scoreMRSA+ rep 2 [3, 20]: -1.50; z-scoreMRSA+ rep 3 [3, 20]: -1.51; effect [3, 21]: No
O=C(Nc1n[nH]c2cc(-c3cccs3)ccc12)C1CC1 [SB-731284]													22.6	23.6	20.0	No	-1.36	-1.08	-1.41	-1.57	cell count rep 1 [2, 16]: 2848; cell count rep 2 [2, 17]: 2463; cell count rep 3 [2, 18]: 2761; effect ([3]; Yes/No call from z-scoreMRSA+): No; hit [3, 26]: No; z-scoreMRSA+ mean [3, 27]: -0.35; z-scoreMRSA+ rep 1 [3, 27]: -0.62; z-scoreMRSA+ rep 2 [3, 27]: 0.24; z-scoreMRSA+ rep 3 [3, 27]: -0.66
O=C(Nc1n[nH]c2cc(-c3ccsc3)ccc12)C1CC1 [SB-732932]	6278	6296	8200							25.2	22.2	22.6				No	1.60	1.39	1.54	1.87	effect ([3]; Yes/No call from z-scoreMRSA+): No; hit [3, 26]: No; z-scoreMRSA+ mean [3, 27]: 0.001; z-scoreMRSA+ rep 1 [3, 27]: -0.0173; z-scoreMRSA+ rep 2 [3, 27]: -0.10; z-scoreMRSA+ rep 3 [3, 27]: 0.12
O=C(Nc1n[nH]c2cc(-c3ccccc3)ccc12)C1CC1 [SB-732941]	4945	4760	7601	No	No	-0.19	-0.15	0.30	-0.74	12.7	14.4	13.4									cell death [2, 6]: No; z-scoreHeLa mean [2, 7]: 0.28; z-scoreHeLa rep 1 [2, 8]: 0.15; z-scoreHeLa rep 2 [2, 9]: 0.37; z-scoreHeLa rep 3 [2, 10]: 0.31
O=C(Nc1n[nH]c2cc(-c3cccc(F)c3F)ccc12)C1CC1 [SB-733894]													21.8	21.7	19.3	No	0.0318	0.20	0.11	-0.22	cell count rep 1 [2, 16]: 4632; cell count rep 2 [2, 17]: 4442; cell count rep 3 [2, 18]: 4898; effect ([3]; Yes/No call from z-scoreMRSA+): No; hit [3, 26]: No; z-scoreMRSA+ mean [3, 27]: -0.63; z-scoreMRSA+ rep 1 [3, 27]: -0.81; z-scoreMRSA+ rep 2 [3, 27]: -0.22; z-scoreMRSA+ rep 3 [3, 27]: -0.87
Nc1nonc1-c1nc2cnccc2n1C1CCCCC1 [SB-734117]	2677	2902	5031							14.7	14.0	13.2				No	-1.28	-1.90	-1.03	-0.92	effect ([3]; Yes/No call from z-scoreMRSA+): No; hit [3, 26]: No; z-scoreMRSA+ mean [3, 27]: -0.0455; z-scoreMRSA+ rep 1 [3, 27]: 0.49; z-scoreMRSA+ rep 2 [3, 27]: 0.17; z-scoreMRSA+ rep 3 [3, 27]: -0.79
CNC(=O)CN1CCC(Oc2cc3c(Nc4cccc(Cl)c4F)ncnc3cc2OC)CC1 [sapitinib, reference compound]																					effect on bacterial burden of MRSA-infected HeLa cells [5]: unable to reduce the bacterial burden
SB-675259-M				No	No	-0.33	-0.0227	0.37	-1.33	13.1	14.6	11.4									cell count rep 1 [2]: 2153; cell count rep 2 [2]: 1700; cell count rep 3 [2]: 5596; cell death [2]: No; z-scoreHeLa mean [2]: -1.66; z-scoreHeLa rep 1 [2]: -2.37; z-scoreHeLa rep 2 [2]: -1.94; z-scoreHeLa rep 3 [2]: -0.65
SB-739245-AC					No								12.9	15.6	16.3						cell count rep 1 [2]: 23497; cell count rep 2 [2]: 32010; cell count rep 3 [2]: 40050; cell death [2]: No; z-scoreHeLa mean [2]: -0.0274; z-scoreHeLa rep 1 [2]: 0.51; z-scoreHeLa rep 2 [2]: -0.52; z-scoreHeLa rep 3 [2]: -0.0761; z-scoreMRSA+ mean [3, 20]: -1.17; z-scoreMRSA+ rep 1 [3, 20]: -1.57; z-scoreMRSA+ rep 2 [3, 20]: -0.88; z-scoreMRSA+ rep 3 [3, 20]: -1.06; effect [3, 21]: No
